pIC50: −log10 of the molar value.

Experiment [1] concerns BT474 cells. Nature of the experiment: Cell proliferation assay (cell counting, BrdU incorporation). The format is cell-based, human. The following applies: Her-2 overexpressing BT474 cells.
Description: (§1) Proliferation assays were routinely performed with two protocols: cell counting and BrdU incorporation assay. For cell counting, cells (1×10^5) were seeded in each well of 12 well plates and cultured overnight. Then, cells were treated for 6 days with drugs and compounds as indicated in individual experiments. Culture media were replaced with fresh media containing the same concentrations of drugs and compounds after the first 3 days of treatment. Viable cells were counted with hemacytometers immediately after trypan blue staining.
The BrdU incorporation assay was performed using a colorimetric Cell Proliferation ELISA kit per manufacturer's instruction (#1647229, Roche Molecular Biochemicals), measuring DNA synthesis in proliferating cells. Briefly, cells (5−10×10^3) were seeded in each well of 96 well plates and cultured overnight. […] Finally, 100 μl/well of substrate solution was added and the results were obtained using a microplate reader (Spectra Max PLUS, Molecular Devices) during color development. Multiple readings at various time points were obtained and results in the linear range of the assay were obtained. […]
After varying periods of cell culture (2-6 days), the cell cultures were harvested and cell growth was assessed by cell count and BRdU incorporation using standard protocols.
In experiment [2] the test system is MCF7 cells. The experiment is described as above. The format is cell-based, human. The following applies: MCF7 cells which do not overexpress Her-2.
Description: as §1
The BrdU incorporation assay was performed using a colorimetric Cell Proliferation ELISA kit per manufacturer's instruction (#1647229, Roche Molecular Biochemicals), measuring DNA synthesis in proliferating cells. Briefly, cells (5−10×10^3) were seeded in each well of 96 well plates and cultured overnight. The next day, culture media were replaced with fresh media containing drugs and compounds as indicated for individual experiments. […] Finally, 100 μl/well of substrate solution was added and the results were obtained using a microplate reader (Spectra Max PLUS, Molecular Devices) during color development. Multiple readings at various time points were obtained and results in the linear range of the assay were obtained. […]
Experiment [3] relates to Her-2 sheddase. Nature of the experiment: Her-2 ECD ELISA of BT474 culture supernatants (Her-2 sheddase inhibition). Format: cell-based, human. The protocol:
BT474 cells were seeded in 100 μL of RPMI medium containing 10% FCS+10 μg/ml insulin in 96 well plates at 2×10^4 cells/well. The cells were incubated overnight at 37° C. The following morning, the media was removed and 100 μL of fresh media with or without compound was added back. The cells were incubated for about 72 hours at 37° C. After about 72 hours, the supernatants were removed. The samples were diluted 1:10 and analyzed using a commercially available Her-2 ELISA kit per manufacturer's instructions (Oncogene Research, catalog #QIA 10).
These inhibitors were added, at varying concentrations, to cultures of BT474 cells, a Her-2 overexpressing breast cancer cell line known to enzymatically process cell surface Her-2 (p185) and release the extracellular domain (ECD) into the culture supernatant, i.e., shedding of ECD. After 72 hours, cell culture supernatants were harvested and assayed for Her-2 ECD content using an ELISA assay.

For experiment [4], the target named is MMP12 (Homo sapiens, UniProt P39900). As to the kind of experiment: MMP12 fluorogenic peptide biochemical assay. An excerpt:
Source of enzymes for biochemical assays: Except for ADAM17 and MT1-MMP, all recombinant human MMPs and ADAMs were obtained from R&D Systems (Minneapolis, Minn.). […] MT1-MMP was obtained from US Biological (Swampscott, Mass.) with a catalog number of M2429. Porcine ADAM17 was purified in house from porcine spleen.
Substrates for biochemical assays: Fluorogenic Peptide substrate, (7-methoxycoumarin-4-yl)acetyl-Pro-Leu-Gly-Leu-(3-[2,4-dinitrophenyl]-L-2,3-diaminopropionyl)-Ala-Arg-NH2 (SEQ ID NO: 46), was obtained from R&D Systems (Minneapolis, Minn.) with a catalog number of ES001. It was used as substrate for MMP1, MMP2, MMP7, MMP8, MMP9, MMP12, MMP13, and MT1-MMP. Fluorogenic Peptide substrate, (7-methoxycoumarin-4-yl)acetyl-Arg-Pro-Lys-Pro-Val-Glu-Nva-Trp-Arg-Lys(2,4-dinitrophenyl)-NH2 (SEQ ID NO: 47), was obtained from R&D Systems with a catalog number of ES002. It was used as substrate for MMP3 and MMP10. […]
In general, 5 mM compound stock was prepared in DMSO. […] The plate was read on a plate reader with excitation of 320 nm and emission of 405 nm. Percentage of inhibition was calculated for each concentration and IC50 value was generated from curve fitting. […]

Chain of MMP12 (P39900 106-470): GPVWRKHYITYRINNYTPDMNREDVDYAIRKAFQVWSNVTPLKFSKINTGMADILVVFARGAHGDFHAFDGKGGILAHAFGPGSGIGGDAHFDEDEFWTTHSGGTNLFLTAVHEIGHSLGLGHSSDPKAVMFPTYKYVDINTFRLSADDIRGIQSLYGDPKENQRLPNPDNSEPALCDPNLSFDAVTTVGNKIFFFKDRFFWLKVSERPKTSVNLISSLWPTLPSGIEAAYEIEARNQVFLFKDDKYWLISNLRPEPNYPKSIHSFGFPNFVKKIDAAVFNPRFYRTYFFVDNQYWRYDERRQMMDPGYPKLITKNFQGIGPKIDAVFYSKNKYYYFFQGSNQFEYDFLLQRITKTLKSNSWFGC

As to `CN1CC2(CC2)C[C@H](C(=O)NO)[C@H]1C(=O)N1CCN(c2ccc(C(F)(F)F)cn2)CC1` [Compound 6], the “effect on antiproliferative activity of a suboptimal dose of Herceptin” value in experiment [1] and in experiment [2] was “does not enhance” in each case. The Her-2 sheddase activity entry in experiment [3] is “inactive”. Also, the pIC50 in experiment [4] is 8.71.

The record behind these values is patent US9345677B2, “Compositions, methods and kits relating to HER-2 cleavage” (Incyte Corporation, priority 2003, dated 2016).
